What was measured:
Test in all cases: LanthaScreen Binding - Eu-anti-GST
[1] = target: T1, CDK3/cyclin E1 (Homo sapiens, UniProt Q00526); details: read-out: Percentage of inhibition
T1 construct: purchased Life Technologies (SelectScreen Whole Panel)
Procedure: (§1) We further evaluated the selectivity profile of compound 55 on a larger panel of kinases (SelectScreen Whole Panel, Life Technologies). The inhibition profile of 55, evaluated at 1 μM, is depicted on a dendrogram on Figure 3 where kinases inhibited by a minimum of 80% are shown. A full list of the kinases tested is shown on Table S1 in supplementary information.

[2] = target: DMPK (Homo sapiens, UniProt Q09013); details: read-out: Percentage of inhibition
Procedure: as §1

[3] = target: T2, ABL1 Q252H (Homo sapiens, UniProt P00519, Q252H); details: read-out: Percentage of inhibition
T2 construct: purchased Life Technologies (SelectScreen service)
Procedure: as §1

[4] = target: T3, TTK (Homo sapiens, UniProt P33981); details: read-out: Percentage of inhibition
T3 construct: purchased Life Technologies
Procedure: as §1

[5] = target: T4, MERTK (cMER) A708S (Homo sapiens, UniProt Q12866, A708S); details: read-out: Percentage of inhibition
T4 construct: purchased Life Technologies
Procedure: as §1

[6] = target: T5, DDR1 (Homo sapiens, UniProt Q08345); details: read-out: Percentage of inhibition
T5 construct: purchased Life Technologies
Procedure: as §1

[7] = target: ACVR1 (ALK2) R206H (Homo sapiens, UniProt Q04771, R206H); details: read-out: Percentage of inhibition
Procedure: as §1

[8] = target: T6, STK17A (DRAK1) (Homo sapiens, UniProt Q9UEE5); details: read-out: Percentage of inhibition
T6 construct: purchased Life Technologies
Procedure: as §1

[9] = target: SIK3 (Homo sapiens, UniProt Q9Y2K2); details: read-out: Percentage of inhibition
Procedure: as §1

[10] = target: CDK2/cyclin E1 (Homo sapiens, UniProt P24941); details: read-out: Percentage of inhibition
Procedure: as §1

[11] = target: T7, ERN2 (Homo sapiens, UniProt Q76MJ5); details: read-out: Percentage of inhibition
T7 construct: purchased Life Technologies (SelectScreen)
Procedure: as §1

[12] = target: T8, EGFR (ErbB1) d747-749 A750P (Homo sapiens, UniProt P00533, A750P/DEL747-749); details: read-out: Percentage of inhibition
T8 construct: purchased Life Technologies
Procedure: as §1

[13] = target: T9, CDC7/DBF4 (Homo sapiens, UniProt O00311); details: read-out: Percentage of inhibition
T9 construct: purchased Life Technologies (SelectScreen service)
Procedure: as §1

[14] = target: CDK9 (Inactive) (Homo sapiens, UniProt P50750); details: read-out: Percentage of inhibition
Procedure: as §1

[15] = target: T10, CDK13/cyclin K (Homo sapiens, UniProt Q14004); details: read-out: Percentage of inhibition
T10 construct: purchased Life Technologies (SelectScreen Whole Panel service)
Procedure: as §1

[16] = target: T11, RET M918T (Homo sapiens, UniProt P07949, M918T); details: read-out: Percentage of inhibition
T11 construct: purchased Life Technologies
Procedure: as §1

[17] = target: MYLK (MLCK) (Homo sapiens, UniProt Q15746); details: read-out: Percentage of inhibition
Procedure: as §1

[18] = system: FLT3 ITD; details: 1 µM
Procedure: as §1

[19] = target: T12, MYLK4 (Homo sapiens, UniProt Q86YV6); details: read-out: Percentage of inhibition
T12 construct: purchased Life Technologies (SelectScreen Whole Panel)
Procedure: as §1

[20] = target: T13, CASK (Homo sapiens, UniProt O14936); details: read-out: Percentage of inhibition
T13 construct: purchased Life Technologies (SelectScreen Whole Panel)
Procedure: as §1

[21] = target: T14, CDK2/cyclin A1 (Homo sapiens, UniProt P24941); details: read-out: Percentage of inhibition
T14 construct: purchased Life Technologies (SelectScreen Whole Panel service)
Procedure: as §1

[22] = target: MAP3K10 (MLK2) (Homo sapiens, UniProt Q02779); details: read-out: Percentage of inhibition
Procedure: as §1

[23] = target: T15, ULK1 (Homo sapiens, UniProt O75385); details: read-out: Percentage of inhibition
T15 construct: purchased Life Technologies
Procedure: as §1

[24] = target: T16, WEE1 (Homo sapiens, UniProt P30291); details: read-out: Percentage of inhibition
T16 construct: purchased Life Technologies (SelectScreen Whole Panel service)
Procedure: as §1

[25] = target: T17, BMPR1B (ALK6) (Homo sapiens, UniProt O00238); details: read-out: Percentage of inhibition
T17 construct: purchased Life Technologies (SelectScreen)
Procedure: as §1

[26] = target: T18, FYN A (Homo sapiens, UniProt P06241); details: read-out: Percentage of inhibition
T18 construct: purchased Life Technologies (SelectScreen Whole Panel service)
Procedure: as §1

[27] = target: T19, LATS2 (Homo sapiens, UniProt Q9NRM7); details: read-out: Percentage of inhibition
T19 construct: purchased Life Technologies (SelectScreen service)
Procedure: as §1

[28] = target: ICK (Homo sapiens, UniProt Q9UPZ9); details: read-out: Percentage of inhibition
Procedure: as §1

[29] = target: T20, KIT D816V (Homo sapiens, UniProt P10721, D816V); details: read-out: Percentage of inhibition
T20 construct: purchased Life Technologies (SelectScreen service)
Procedure: as §1

[30] = target: TESK1 (Homo sapiens, UniProt Q15569); details: read-out: Percentage of inhibition
Procedure: as §1

[31] = target: T21, VRK2 (Homo sapiens, UniProt Q86Y07); details: read-out: Percentage of inhibition
T21 construct: purchased Life Technologies (SelectScreen Whole Panel)
Procedure: as §1

[32] = target: T22, TGFBR2 (Homo sapiens, UniProt P37173); details: read-out: Percentage of inhibition
T22 construct: purchased Life Technologies (SelectScreen Whole Panel)
Procedure: as §1

[33] = target: T23, PLK4 (Homo sapiens, UniProt O00444); details: read-out: Percentage of inhibition
T23 construct: purchased Life Technologies (SelectScreen Whole Panel)
Procedure: as §1

[34] = target: T24, TESK2 (Homo sapiens, UniProt Q96S53); details: read-out: Percentage of inhibition
T24 construct: purchased Life Technologies
Procedure: as §1

[35] = target: T25, RAF1 (cRAF) Y340D Y341D (Homo sapiens, UniProt P04049, Y340D/Y341D); details: read-out: Percentage of inhibition
T25 construct: purchased Life Technologies
Procedure: as §1

[36] = target: MET D1228H (Homo sapiens, UniProt P08581, D1228H); details: read-out: Percentage of inhibition
Procedure: as §1

[37] = target: T26, KIT A829P (Homo sapiens, UniProt P10721, A829P); details: read-out: Percentage of inhibition
T26 construct: purchased Life Technologies (SelectScreen service)
Procedure: as §1

[38] = target: T27, NLK (Homo sapiens, UniProt Q9UBE8); details: read-out: Percentage of inhibition
T27 construct: purchased Life Technologies (SelectScreen Whole Panel service)
Procedure: as §1

[39] = target: STK32B (YANK2) (Homo sapiens, UniProt Q9NY57); details: read-out: Percentage of inhibition
Procedure: as §1

[40] = target: T28, ACVR2A (Homo sapiens, UniProt P27037); details: read-out: Percentage of inhibition
T28 construct: purchased Life Technologies (SelectScreen)
Procedure: as §1

STK32B (YANK2), sequence (Q9NY57 whole entry): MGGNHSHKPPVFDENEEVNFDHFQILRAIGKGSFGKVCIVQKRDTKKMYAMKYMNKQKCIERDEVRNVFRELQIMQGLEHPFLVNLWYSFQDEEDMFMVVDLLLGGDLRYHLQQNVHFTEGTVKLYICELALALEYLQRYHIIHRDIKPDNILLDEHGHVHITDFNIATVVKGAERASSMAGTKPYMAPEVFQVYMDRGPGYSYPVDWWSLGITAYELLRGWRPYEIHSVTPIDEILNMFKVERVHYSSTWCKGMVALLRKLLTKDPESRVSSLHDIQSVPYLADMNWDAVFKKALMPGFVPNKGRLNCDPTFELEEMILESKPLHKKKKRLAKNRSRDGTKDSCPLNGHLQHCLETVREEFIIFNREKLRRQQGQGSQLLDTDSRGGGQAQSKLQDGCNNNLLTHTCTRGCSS
T3 sequence (P33981 whole entry): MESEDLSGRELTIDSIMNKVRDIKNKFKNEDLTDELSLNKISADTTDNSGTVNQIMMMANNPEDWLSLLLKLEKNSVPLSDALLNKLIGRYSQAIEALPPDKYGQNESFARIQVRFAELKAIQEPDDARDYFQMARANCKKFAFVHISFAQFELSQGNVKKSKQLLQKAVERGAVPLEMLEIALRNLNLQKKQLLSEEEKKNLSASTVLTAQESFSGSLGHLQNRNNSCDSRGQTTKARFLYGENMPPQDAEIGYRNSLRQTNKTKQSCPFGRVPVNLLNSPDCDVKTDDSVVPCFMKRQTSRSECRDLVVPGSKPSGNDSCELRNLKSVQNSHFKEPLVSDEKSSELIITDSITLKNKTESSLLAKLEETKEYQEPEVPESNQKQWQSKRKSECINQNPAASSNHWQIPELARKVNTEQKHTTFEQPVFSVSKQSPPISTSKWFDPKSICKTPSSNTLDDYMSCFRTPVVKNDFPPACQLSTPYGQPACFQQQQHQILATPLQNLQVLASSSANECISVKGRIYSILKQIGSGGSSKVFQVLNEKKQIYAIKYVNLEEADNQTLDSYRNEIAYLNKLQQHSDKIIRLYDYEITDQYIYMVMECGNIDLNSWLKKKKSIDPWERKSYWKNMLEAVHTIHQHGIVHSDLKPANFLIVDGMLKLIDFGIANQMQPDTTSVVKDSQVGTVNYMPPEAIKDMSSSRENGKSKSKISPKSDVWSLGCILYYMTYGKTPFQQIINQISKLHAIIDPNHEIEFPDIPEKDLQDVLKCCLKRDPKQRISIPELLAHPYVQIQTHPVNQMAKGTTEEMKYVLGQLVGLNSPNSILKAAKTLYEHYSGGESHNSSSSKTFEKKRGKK
T13 sequence (O14936 whole entry): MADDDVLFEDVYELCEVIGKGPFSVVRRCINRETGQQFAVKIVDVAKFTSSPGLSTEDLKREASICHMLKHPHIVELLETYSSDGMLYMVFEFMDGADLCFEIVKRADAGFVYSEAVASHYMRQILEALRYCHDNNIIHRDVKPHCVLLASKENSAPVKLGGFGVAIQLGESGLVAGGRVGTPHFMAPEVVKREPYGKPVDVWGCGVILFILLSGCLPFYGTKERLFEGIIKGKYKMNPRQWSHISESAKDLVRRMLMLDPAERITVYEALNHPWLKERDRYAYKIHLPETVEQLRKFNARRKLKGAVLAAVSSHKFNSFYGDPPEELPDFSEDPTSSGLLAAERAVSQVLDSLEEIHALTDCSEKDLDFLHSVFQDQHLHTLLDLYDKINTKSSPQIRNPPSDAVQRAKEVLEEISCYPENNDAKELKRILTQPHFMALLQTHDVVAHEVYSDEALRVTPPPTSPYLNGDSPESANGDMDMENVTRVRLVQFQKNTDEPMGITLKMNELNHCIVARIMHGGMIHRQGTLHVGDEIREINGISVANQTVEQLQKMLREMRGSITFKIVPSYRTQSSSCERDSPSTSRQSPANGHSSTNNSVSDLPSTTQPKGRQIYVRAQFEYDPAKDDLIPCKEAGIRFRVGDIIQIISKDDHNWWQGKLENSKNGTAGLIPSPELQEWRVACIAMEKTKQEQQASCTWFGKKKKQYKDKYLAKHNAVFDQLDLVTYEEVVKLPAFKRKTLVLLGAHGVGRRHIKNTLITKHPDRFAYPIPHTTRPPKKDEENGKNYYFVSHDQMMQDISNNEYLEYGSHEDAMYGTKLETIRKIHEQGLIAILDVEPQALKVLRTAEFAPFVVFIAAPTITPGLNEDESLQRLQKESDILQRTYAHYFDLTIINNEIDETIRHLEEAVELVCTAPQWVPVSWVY
T7 sequence (Q76MJ5 35-926): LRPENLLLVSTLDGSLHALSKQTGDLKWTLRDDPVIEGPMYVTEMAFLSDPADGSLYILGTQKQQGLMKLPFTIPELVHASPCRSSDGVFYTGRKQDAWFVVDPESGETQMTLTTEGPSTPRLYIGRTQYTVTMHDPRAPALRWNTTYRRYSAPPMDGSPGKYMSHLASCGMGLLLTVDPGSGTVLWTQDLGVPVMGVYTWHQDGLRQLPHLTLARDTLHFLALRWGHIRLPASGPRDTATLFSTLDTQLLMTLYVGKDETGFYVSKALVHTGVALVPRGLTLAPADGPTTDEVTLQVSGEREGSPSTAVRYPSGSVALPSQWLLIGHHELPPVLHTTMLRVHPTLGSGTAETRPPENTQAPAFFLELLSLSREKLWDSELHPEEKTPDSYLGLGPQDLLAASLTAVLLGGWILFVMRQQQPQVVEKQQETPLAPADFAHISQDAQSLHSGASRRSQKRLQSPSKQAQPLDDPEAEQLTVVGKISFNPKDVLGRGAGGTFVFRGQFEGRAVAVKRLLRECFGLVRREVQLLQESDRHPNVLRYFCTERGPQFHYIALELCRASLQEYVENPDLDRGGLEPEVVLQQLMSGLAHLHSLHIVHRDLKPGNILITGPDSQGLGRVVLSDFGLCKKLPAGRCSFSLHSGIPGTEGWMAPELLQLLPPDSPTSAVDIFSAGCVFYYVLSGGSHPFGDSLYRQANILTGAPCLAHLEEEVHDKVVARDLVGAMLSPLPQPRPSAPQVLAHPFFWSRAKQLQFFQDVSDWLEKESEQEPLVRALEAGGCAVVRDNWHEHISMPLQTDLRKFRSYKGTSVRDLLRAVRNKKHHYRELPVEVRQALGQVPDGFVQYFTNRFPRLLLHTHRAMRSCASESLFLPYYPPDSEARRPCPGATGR
T17 sequence (O00238 14-502): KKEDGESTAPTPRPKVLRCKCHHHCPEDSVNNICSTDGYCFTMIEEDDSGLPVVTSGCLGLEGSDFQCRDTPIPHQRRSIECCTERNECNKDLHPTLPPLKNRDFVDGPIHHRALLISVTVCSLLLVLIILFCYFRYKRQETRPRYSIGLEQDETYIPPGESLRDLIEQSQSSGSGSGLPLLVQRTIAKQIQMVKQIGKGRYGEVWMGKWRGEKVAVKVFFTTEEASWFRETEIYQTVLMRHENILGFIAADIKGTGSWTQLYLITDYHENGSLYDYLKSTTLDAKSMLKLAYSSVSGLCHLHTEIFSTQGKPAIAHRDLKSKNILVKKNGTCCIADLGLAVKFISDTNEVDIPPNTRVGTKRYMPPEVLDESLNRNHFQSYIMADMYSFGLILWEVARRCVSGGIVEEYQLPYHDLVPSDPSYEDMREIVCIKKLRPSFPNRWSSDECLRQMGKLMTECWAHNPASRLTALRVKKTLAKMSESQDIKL
T9 sequence (O00311 whole entry): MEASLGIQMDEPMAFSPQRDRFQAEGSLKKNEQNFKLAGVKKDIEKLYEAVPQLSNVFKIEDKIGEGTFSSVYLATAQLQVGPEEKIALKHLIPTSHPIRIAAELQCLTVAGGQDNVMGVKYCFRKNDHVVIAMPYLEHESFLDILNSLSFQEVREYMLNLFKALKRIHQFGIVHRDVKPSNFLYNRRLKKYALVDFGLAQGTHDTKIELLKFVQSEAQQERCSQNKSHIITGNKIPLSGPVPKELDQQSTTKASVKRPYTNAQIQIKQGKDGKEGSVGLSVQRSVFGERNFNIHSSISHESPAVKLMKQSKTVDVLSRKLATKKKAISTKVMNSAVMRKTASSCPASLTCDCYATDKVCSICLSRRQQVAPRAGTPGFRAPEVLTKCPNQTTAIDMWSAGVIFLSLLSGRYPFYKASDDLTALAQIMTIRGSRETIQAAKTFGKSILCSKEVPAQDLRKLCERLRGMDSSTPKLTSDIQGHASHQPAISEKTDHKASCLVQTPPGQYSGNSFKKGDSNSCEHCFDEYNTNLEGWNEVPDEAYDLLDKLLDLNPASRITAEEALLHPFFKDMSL
T9 sequence (Q9UBU7 whole entry partner): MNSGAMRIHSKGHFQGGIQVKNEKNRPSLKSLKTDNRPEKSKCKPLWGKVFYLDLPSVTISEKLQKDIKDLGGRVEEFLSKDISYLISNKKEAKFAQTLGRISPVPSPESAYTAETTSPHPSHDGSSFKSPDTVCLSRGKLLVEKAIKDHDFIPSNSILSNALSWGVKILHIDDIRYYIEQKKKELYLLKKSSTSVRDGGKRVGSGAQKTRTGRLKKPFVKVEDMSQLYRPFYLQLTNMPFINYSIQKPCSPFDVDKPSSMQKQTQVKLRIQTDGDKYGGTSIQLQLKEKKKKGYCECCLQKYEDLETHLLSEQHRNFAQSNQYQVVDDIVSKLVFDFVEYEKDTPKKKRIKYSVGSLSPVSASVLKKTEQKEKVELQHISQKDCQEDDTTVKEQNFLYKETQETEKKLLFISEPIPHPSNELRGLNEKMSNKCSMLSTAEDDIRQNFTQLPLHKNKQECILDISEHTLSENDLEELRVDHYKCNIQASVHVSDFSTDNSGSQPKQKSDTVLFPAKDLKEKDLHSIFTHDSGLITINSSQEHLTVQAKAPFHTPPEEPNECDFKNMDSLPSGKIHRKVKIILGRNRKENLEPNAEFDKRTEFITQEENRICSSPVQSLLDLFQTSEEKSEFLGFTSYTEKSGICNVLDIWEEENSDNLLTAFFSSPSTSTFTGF

## COc1ccc2[nH]c3c(=O)[nH]c4ccc(O)cc4c3c2c1 [Compound 55, 2-Hydroxy-10-methoxy-5,7-dihydro-6H-indolo[2,3-c]quinolin-6-one]
[1]
  inhibition at 1 µM: 50%
[2]
  inhibition at 1 µM: 63%
[3]
  inhibition at 1 µM: 77%
[4]
  inhibition at 1 µM: 42%
[5]
  inhibition at 1 µM: 31%
[6]
  inhibition at 1 µM: 5%
[7]
  inhibition at 1 µM: 14%
[8]
  inhibition at 1 µM: 95%
[9]
  inhibition at 1 µM: 7%
[10]
  inhibition at 1 µM: 64%
[11]
  inhibition at 1 µM: 8%
[12]
  inhibition at 1 µM: 34%
[13]
  inhibition at 1 µM: 83%
[14]
  inhibition at 1 µM: 59%
[15]
  inhibition at 1 µM: 17%
[16]
  inhibition at 1 µM: 94%
[17]
  inhibition at 1 µM: 60%
[18]
  Percentage of inhibition: 97%
[19]
  inhibition at 1 µM: 111%
[20]
  inhibition at 1 µM: -3%
[21]
  inhibition at 1 µM: 43%
[22]
  inhibition at 1 µM: 20%
[23]
  inhibition at 1 µM: 31%
[24]
  inhibition at 1 µM: 18%
[25]
  inhibition at 1 µM: 8%
[26]
  inhibition at 1 µM: 45%
[27]
  inhibition at 1 µM: 82%
[28]
  inhibition at 1 µM: 57%
[29]
  inhibition at 1 µM: 77%
[30]
  inhibition at 1 µM: 15%
[31]
  inhibition at 1 µM: 54%
[32]
  inhibition at 1 µM: 102%
[33]
  inhibition at 1 µM: 50%
[34]
  inhibition at 1 µM: 3%
[35]
  inhibition at 1 µM: 4%
[36]
  inhibition at 1 µM: 14%
[37]
  inhibition at 1 µM: 76%
[38]
  inhibition at 1 µM: 15%
[39]
  inhibition at 1 µM: 7%
[40]
  inhibition at 1 µM: 8%
